The subject of this series is HUVECs. The series is described as follows: Cytotoxicity of [Rull(bpy)3]^2+ on HUVECs (MTT assay). Type of series: cell-based, human. As to the method: FIG. 3 is a graph illustrative of the effect of [Rull(bpy)3]^2+ concentration on the viability of HUVECs. Absorbance of the MTT assay was determined at 490 nm.
HUVECs (CRL-2873™) thawed from cryopreservation was cultured in Endogro Supplement medium kit (Millipore) supplemented with 1% penicillin streptomycin. Cells were recovered from tissue culture dishes/T25 flask with 0.05% trypsin-ethylenediaminetetraacetic acid (EDTA) in PBS. The cells were routinely passaged at 1/5 confluency. All cells were incubated at 37° C. in a humidified, 5% CO2 atmosphere.

We go through one molecule from patent US20130203146A1, “MICROFABRICATED SCAFFOLD STRUCTURES” (priority 2010, published 2013).

Consider `[Cl-].[Cl-].[Ru+2].c1ccc(-c2ccccn2)nc1.c1ccc(-c2ccccn2)nc1.c1ccc(-c2ccccn2)nc1` [[Rull(bpy)3]^2+, ruthenium II trisbipyridyl chloride [RuII(bpy)3]^2+], for which, for the setting “HUVECs, MTT assay, absorbance at 490 nm”, the “safe range of [Rull(bpy)3]^2+ concentrations” value lay within 0.5 to 3.5 mM. Besides, the “viability of HUVECs” value (higher [Rull(bpy)3]^2+ concentration than the safe range, lower absorbance at 490 nm) is listed as “reduce the viability of HUVECs”.
